Laboratory results from patent US10293021B2, “Conjugates and prodrugs for treating cancer and inflammatory diseases” (CENTRE NATIONAL DE LA RECHERCHE SCIENTIFIQUE, priority 2014, dated 2019).
Where a SMILES comes first, the peptide text is derived from it. [ ]: non-standard residue; d: D form. The star is where a group is joined. Dolaproine = CO[C@@H]([C@@H]1CCCN1)[C@@H](C)C(=O)O; Dil = CC[C@H](C)[C@H](NC)[C@@H](CC(=O)O)OC; X1 = C[C@@H](N*)[C@@H](O)c1ccccc1; NMeV = CN[C@H](C(=O)O)C(C)C

What was measured:
[1] = test system: orthotopically grafted human breast tumor of MDA-MB-231 type (MDA-MB-231-Luc cells); assay: Therapeutic efficacy in vivo on a murine model of human breast cancer; design: species or system Balb/c Nude mice
Protocol: The therapeutic efficacy of the conjugate of formula (III), as synthesized according to the reaction protocol described in example 1, was evaluated on 6-week-old female Balb/c Nude mice (Charles River France Laboratories—L'Arbresle) as indicated in example 3.
The MDA-MB-231 cells originate from a mammary adenocarcinoma from a person. The MDA-MB-231 mammary cancer cell line was supplied by Caliper LifeSciences (Roissy, France). These cells were chosen because they make it possible to generate tumors of hypoxic nature, reflecting the clinical pathological situation.
These cells are modified to express the luciferase gene. The cells were cultured in […] flasks and maintained in a humidified incubator at 37° C. under an atmosphere consisting of air, with Eagle's Minimal Essential Medium (EMEM) supplemented with 10% of fetal calf serum, 1% of L-glutamine, 1% of sodium pyruvate, 1% of non-essential amino acids, 2% of sodium bicarbonate and 1% of penicillin and streptomycin.
For the implantations, the abdomens of the mice were disinfected with an iodinated povidone solution (Betadine®, ASTA Medica, Belgium). The needle was inserted into the subcutaneous space, at the level of the lower left teat. 2×10^6 MDA-MB-231-Luc cells in 100 μl of PBS was slowly injected using a 27-caliber needle. The needle was then slowly withdrawn. For this, the mice will be anesthetized by inhalation of isoflurane (2% in air).
The mice (6 animals per group) received a treatment 15 days after the tumor implantations. The intravenous injections were carried out once a week for 5 weeks with doses of 4 mg/kg of conjugate of formula (III) (D15, D22, D29, D36 and D43). The control groups were treated either with MMAE alone with a dose of 0.3 mg/kg, or with the excipient consisting of a mixture of DMSO and PBS (5%/95%).
The evolution of the tumor volume was monitored by 3D echography. The measurements were carried out as described in example 2, on days 7, 11, 15, 19, 22, 25, 27, 29, 32, 34, 36, 39, 43 and 50.

[2] = test system: orthotopically grafted human pancreatic tumor of Mia Paca type (Mia PaCa 2-Luc cells); assay: Therapeutic efficacy in vivo on a murine model of human pancreatic cancer (two weekly injections, D7 and D14); design: species or system Swiss Nude mice; conditions: 2 injections (D7 and D14), echography over 70 days, FIG. 2
Protocol: The therapeutic efficacy of the conjugate of formula (III), as synthesized according to the reaction protocol described in example 1, was evaluated on 6-week-old female Swiss Nude mice (Charles River France Laboratories, l'Arbresle). The animals were acclimatized for 7 days in the laboratory before the experiment. The mice were housed in plastic cages equipped with filtering lids (HEPA filter), in a ventilated cage rack, housed at a temperature of 20±2° C. with a light/dark cycle of 12/12 hours, with free access to water and food ad libitum.
The Mia Paca 2 cells originate from a pancreatic adenocarcinoma from a person. The Mia Paca 2 pancreatic cancer cell line was supplied by the American Type Culture Collection (Rockville, Md.). These cells were chosen since they make it possible to generate tumors of hypoxic nature, reflecting the clinical pathological situation.
These cells were modified to express the luciferase gene (Mia PaCa 2-Luc). The cells were cultured in […] flasks and maintained in a humidified incubator at 37° C. in 5% CO2 with Dulbecco's Modified Eagle Medium (DMEM) supplemented with 10% of fetal calf serum, 2.5% of horse serum, 1% of L-glutamine and 1% of penicillin and streptomycin.
For the implantations, the abdomens of the mice were disinfected with an iodinated povidone solution (Betadine®, ASTA Medica, Belgium). A 1 cm incision was made in the upper left quadrant of the abdomen. The end of the tail of the pancreas was seized and the pancreas and also the spleen were gently externalized in a lateral direction so as to be fully exposed. The needle was inserted into the tail of the pancreas and positioned just in the region of the head of the pancreas. 2×10^6 Mia PaCa 2-Luc cells in 50 μl of PBS were slowly injected using a 27-caliber needle. The spleen was then put back into the appropriate position in the abdomen and the skin and the peritoneum were sutured with a 5.0-diameter resorbable thread. […]
The evolution of the tumor volume was monitored by echography. […]

| SMILES | evolution of the tumor volume (antitumor activity versus control animals) ([1]; MMAE alone 0.3 mg/kg (FIG. 4 legend: 0.5 mg/kg) intravenous once a week for 5 weeks, FIG. 4 panel B) | evolution of the tumor volume ([2]; 0.3 mg/kg intravenous) | visible side effects ([1]; 4 mg/kg intravenous once a week for 5 weeks) | evolution of the tumor volume ([1]; 4 mg/kg intravenous once a week for 5 weeks (D15-D43), echography for 50 days, FIG. 4 panel C) | evolution of the tumor volume ([2]; 2 mg/kg intravenous) | evolution of the tumor volume ([2]; 4 mg/kg intravenous) |
| --- | --- | --- | --- | --- | --- | --- |
| CC[C@H](C)[C@@H]([C@@H](CC(=O)N1CCC[C@H]1[C@H](OC)[C@@H](C)C(=O)N[C@H](C)[C@@H](O)c1ccccc1)OC)N(C)C(=O)[C@@H](NC(=O)[C@@H](NC)C(C)C)C(C)C [MMAE, monomethyl auristatin E, reference compound] (H-[NMeV]V[Dil][Dolaproine]-X1) | only a very modest antitumor activity | significant increase in the tumor volume is observed starting from day 35 | – | – | – | – |
| CC[C@@H](C)[C@H]([C@H](CC(=O)N1CCC[C@@H]1[C@@H](OC)[C@H](C)C(=O)N[C@@H](C)[C@H](O)c1ccccc1)OC)N(C)C(=O)[C@H](NC(=O)[C@@H](C(C)C)N(C)C(=O)OC(Cc1cn(CCOCCOCCOCCOCCOCCOCCOCCOCCOCCOCCNC(=O)CCCCCN2C(=O)C=CC2=O)nn1)c1ccc(O[C@@H]2OC(C(=O)O)[C@@H](O)[C@H](O)C2O)c([N+](=O)[O-])c1)C(C)C (stereo partly drawn) [conjugate of formula (III)] | – | – | without visible side effects | total and long-lasting regression of the tumor | the progression of the tumor volume is slower than with the control or the non-functionalized MMAE | total absence of tumor growth |
